B1: Flagellin: TLR5 agonist, S. typhimurium Flagellin (invivoGen: tlrl-epstfla-5) (protein, UniProt P06179 2-495, looked up)
Flagellin: AQVINTNSLSLLTQNNLNKSQSALGTAIERLSSGLRINSAKDDAAGQAIANRFTANIKGLTQASRNANDGISIAQTTEGALNEINNNLQRVRELAVQSANSTNSQSDLDSIQAEITQRLNEIDRVSGQTQFNGVKVLAQDNTLTIQVGANDGETIDIDLKQINSQTLGLDTLNVQQKYKVSDTAATVTGYADTTIALDNSTFKASATGLGGTDQKIDGDLKFDDTTGKYYAKVTVTGGTGKDGYYEVSVDKTNGEVTLAGGATSPLTGGLPATATEDVKNVQVANADLTEAKAALTAAGVTGTASVVKMSYTDNNGKTIDGGLAVKVGDDYYSATQNKDGSISINTTKYTADDGTSKTALNKLGGADGKTEVVSIGGKTYAASKAEGHNFKAQPDLAEAAATTTENPLQKIDAALAQVDTLRSDLGAVQNRFNSAITNLGNTVNNLTSARSRIEDSDYATEVSNMSRAQILQQAGTSVLAQANQVPQNVLSLLR

Assays:
[1] = tested on: central memory CD8+ T cells (TCM); experiment: Proliferation of the central memory subpopulation of CD8+ T cells of healthy subjects; type: cell-based; conditions: in combination with anti-human CD3 antibody, compared with anti-human CD3 beads alone, 7 days
Method: (§1) 1. Peripheral blood mononuclear cells (PBMC) of healthy subjects were isolated.
(§2) 2. CD8+ T cells were sorted using an EasySep™ Negative Selection Human CD8+ T cell Enrichment kit (stem cell: 19053).
(§3) 3. The sorted CD8 cells were stained using Cell Proliferation Dye eFluor 670 (ebioscience: 65-0840-90).
(§4) 4. The cells were placed in a 96-well U-shaped bottom plate with 1×10^5 cells per well.
(§5) 5. The following stimulants and TLR agonists (invivoGen: tlr-kit1hw, human TLR1-9 Agonist KIT) were added in groups:
(§6) (The anti-human CD3 antibody used was magnetic beads coated with the antibody (CELLection Pan Mouse IgG Kit, Invitrogen: 11531D), wherein the ratio of the cells to the magnetic beads was 1:1)
(§7) 6. The cells were cultured in the 96-well U-shaped bottom plate, and cultured in a cell incubator for 7 days.
(§8) 7. The cells were labeled with antibodies CD8 (BD: 561423), CD45RA (eBioscience: 25-0458-42) and CCR7 (eBioscience: 17-1979-42), and the influence of different TLR agonists on the proliferation of CD8+ T subpopulations (TNaive: Naive T cells, TCM: central memory T cells, TEM: effector memory T cells) was detected by flow cytometry.

[2] = tested on: effector memory T cells (TEM); experiment: Proliferation of the effector memory subpopulation of CD8+ T cells of HIV-1 infected individuals; type: cell-based, human; conditions: 7 days
From the text: (§9) 1. Peripheral blood mononuclear cells (PBMC) of HIV-1 infected individuals were isolated.
(§10) 2. CD8+ T cells were sorted using an EasySep™ Negative Selection Human CD8+ T cell Enrichment kit (Stemcell: 19053).
as §3, §4, §5
(§11) (The anti-human CD3 antibody and the anti-human CD28 antibody in the form of coated magnetic beads (CELLection Pan Mouse IgG Kit, Invitrogen: 11531D) were used to stimulate the cells, wherein the ratio of the cells to the magnetic beads was 1:1)
as §7
as §8, with “by a” for “by”, “cytometer.” for “cytometry.”

[3] = tested on: CD8+ T cells; experiment: Proliferation of sorted CD8+ T cells of healthy subjects (eFluor 670 dye, flow cytometry, 7 days); type: cell-based; conditions: in combination with anti-human CD3 antibody, compared with magnetic beads coated with anti-human CD3 antibody alone
From the text: 1. Peripheral blood mononuclear cells (PBMC) of healthy subjects were isolated according to Example 1.
as §10, §3, §4, §5
(The anti-human CD3 antibody and the anti-human CD28 antibody used were magnetic beads coated with the antibodies (CELLection Pan Mouse IgG Kit, Invitrogen: 11531D), wherein the ratio of the cells to the magnetic beads was 1:1)
as §7
7. The proliferation of the CD8+ T cells was detected by a flow cytometer under the stimulation conditions of different TLR agonists. FIG. 1A is a diagram showing the proliferation of CD8 cells under the conditions of blank control (left panel) as well as an anti-human CD3 antibody and an anti-human CD28 antibody (right panel). FIG. 1B is a statistical chart showing the proliferation proportion of CD8 cells under different stimulation conditions.

[4] = tested on: central memory CD8+ T cells (TCM); experiment: Proliferation of the central memory subpopulation of CD8+ T cells of HIV-1 infected individuals; type: cell-based, human; conditions: 7 days
From the text: as §9, §10, §3, §4, §5, §11, §7
as §8, with “by a” for “by”, “cytometer.” for “cytometry.”

[5] = tested on: effector memory T cells (TEM); experiment: Proliferation of the effector memory subpopulation of CD8+ T cells of healthy subjects; type: cell-based; conditions: in combination with anti-human CD3 antibody, compared with anti-human CD3 beads alone, 7 days
Method: as §1, §2, §3, §4, §5, §6, §7, §8

[6] = added to anti-human CD3/28 beads, compared with anti-human CD3/28 beads
[7] = added to anti-human CD3 beads, compared with anti-human CD3 beads alone

Row | Molecule | proliferation of central memory CD8+ T cells (TCM) [1] | proliferation of effector memory T cells (TEM) [2, 6] | proliferation of effector memory T cells (TEM) [2, 7] | proliferation of CD8+ T cells [3] | proliferation of central memory CD8+ T cells (TCM) [4, 6] | proliferation of central memory CD8+ T cells (TCM) [4, 7] | proliferation of effector memory T cells (TEM) [5]
1 | FSL-1 | effectively stimulated | further enhanced | more effectively stimulated | effectively stimulated | further enhanced | more effectively stimulated | effectively stimulated
2 | B1 | effectively stimulated | further enhanced | more effectively stimulated | effectively stimulated | further enhanced | more effectively stimulated | effectively stimulated

From US11773373B2, “Method for amplifying CD8+T cells and cell subpopulations thereof in-vitro” (Shanghai Innovative Chang'An Biological Technology Co., Ltd., priority 2017, dated 2023)
